Source: ChEMBL document CHEMBL1909294, “Translating clinical findings into knowledge in drug safety evaluation--drug induced liver injury prediction system (DILIps)” (PLoS Comput Biol, 2011)

Experiments:
Hepatotoxicity [1] = system: Hepatotoxicity;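 on HepSE bilirubinemia: bilirubinemia hepatic side effect score drawn from the DILIps training data, a prediction system for drug-induced liver injury; call rule not given here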;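 on HepSE cholecystitis: Cholecystitis-related hepatic side effect score drawn from the DILIps (drug-induced liver injury prediction) training data set; call rule not given here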;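 on HepSE cholelithiasis: hepatic side effect score for cholelithiasis, drawn from the DILIps training data for predicting drug-induced liver injury; call rule not given here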;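 on HepSE cirrhosis: cirrhosis hepatic side effect score taken from the DILIps (drug-induced liver injury prediction) training set; call rule not given here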;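 on HepSE elevated liver function tests: hepatic side effect score for raised liver function tests, as recorded in the DILIps training set used for predicting drug-induced liver injury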; on HepSE hepatic failure: call rule not given here;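 on HepSE hepatomegaly: hepatic side effect score for hepatomegaly, taken from the training set of the DILIps drug-induced liver injury prediction system; call rule not given here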
Hepatotoxicity [2] = system: Hepatotoxicity; remark: listed apart in the source;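 on HepSE bilirubinemia: bilirubinemia hepatic side effect score drawn from the DILIps training data, a prediction system for drug-induced liver injury; call rule not given here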;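 on HepSE cholecystitis: Cholecystitis-related hepatic side effect score drawn from the DILIps (drug-induced liver injury prediction) training data set; call rule not given here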;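 on HepSE cholelithiasis: hepatic side effect score for cholelithiasis, drawn from the DILIps training data for predicting drug-induced liver injury; call rule not given here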;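 on HepSE cirrhosis: cirrhosis hepatic side effect score taken from the DILIps (drug-induced liver injury prediction) training set; call rule not given here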;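 on HepSE elevated liver function tests: hepatic side effect score for raised liver function tests, as recorded in the DILIps training set used for predicting drug-induced liver injury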; on HepSE hepatic failure: call rule not given here;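 on HepSE hepatomegaly: hepatic side effect score for hepatomegaly, taken from the training set of the DILIps drug-induced liver injury prediction system; call rule not given here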
Hepatotoxicity [3] = system: Hepatotoxicity; remark: listed apart in the source;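 on HepSE bilirubinemia: bilirubinemia hepatic side effect score drawn from the DILIps training data, a prediction system for drug-induced liver injury; call rule not given here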;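 on HepSE cholecystitis: Cholecystitis-related hepatic side effect score drawn from the DILIps (drug-induced liver injury prediction) training data set; call rule not given here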;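 on HepSE cholelithiasis: hepatic side effect score for cholelithiasis, drawn from the DILIps training data for predicting drug-induced liver injury; call rule not given here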;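 on HepSE cirrhosis: cirrhosis hepatic side effect score taken from the DILIps (drug-induced liver injury prediction) training set; call rule not given here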;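 on HepSE elevated liver function tests: hepatic side effect score for raised liver function tests, as recorded in the DILIps training set used for predicting drug-induced liver injury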; on HepSE hepatic failure: call rule not given here
Hepatotoxicity [4] = system: Hepatotoxicity; remark: listed apart in the source;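 on HepSE bilirubinemia: bilirubinemia hepatic side effect score drawn from the DILIps training data, a prediction system for drug-induced liver injury; call rule not given here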;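 on HepSE cholecystitis: Cholecystitis-related hepatic side effect score drawn from the DILIps (drug-induced liver injury prediction) training data set; call rule not given here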;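 on HepSE cholelithiasis: hepatic side effect score for cholelithiasis, drawn from the DILIps training data for predicting drug-induced liver injury; call rule not given here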;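 on HepSE cirrhosis: cirrhosis hepatic side effect score taken from the DILIps (drug-induced liver injury prediction) training set; call rule not given here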;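 on HepSE elevated liver function tests: hepatic side effect score for raised liver function tests, as recorded in the DILIps training set used for predicting drug-induced liver injury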; on HepSE hepatic failure: call rule not given here
Hepatotoxicity [5] = system: Hepatotoxicity; remark: listed apart in the source; on HepSE hepatic failure: call rule not given here
Hepatotoxicity [6] = system: Hepatotoxicity; remark: listed apart in the source; on HepSE hepatic failure: call rule not given here
Hepatotoxicity [7] = system: Hepatotoxicity; remark: listed apart in the source
Hepatotoxicity [8] = system: Hepatotoxicity; remark: listed apart in the source
Hepatotoxicity [9] = system: Hepatotoxicity; remark: listed apart in the source
Hepatotoxicity [10] = system: Hepatotoxicity; remark: listed apart in the source
Hepatotoxicity [11] = system: Hepatotoxicity; remark: listed apart in the source
Hepatotoxicity [12] = system: Hepatotoxicity; remark: listed apart in the source
Hepatotoxicity [13] = system: Hepatotoxicity; remark: listed apart in the source
Hepatotoxicity [14] = system: Hepatotoxicity; remark: listed apart in the source

Structure (SMILES): NCC(=O)O [GLYCINE]
- HepSE_bilirubinemia (Hepatotoxicity [1]; Liver): 0
- HepSE_cholecystitis (Hepatotoxicity [2]; Liver): 0
- HepSE_cholelithiasis (Hepatotoxicity [3]; Liver): 0
- HepSE_cirrhosis (Hepatotoxicity [4]; Liver): 0
- HepSE_elevated liver function tests (Hepatotoxicity [5]; Liver): 0
- HepSE_hepatic failure (Hepatotoxicity [6]; Liver): 0
- HepSE_hepatic necrosis (Hepatotoxicity [7]; Liver): 0
- HepSE_hepatitis (Hepatotoxicity [8]; Liver): 0
- HepSE_hepatomegaly (Hepatotoxicity [9]; Liver): 0
- HepSE_jaundice (Hepatotoxicity [10]; Liver): 0
- HepSE_liver disease (Hepatotoxicity [11]; Liver): 0
- HepSE_liver fatty (Hepatotoxicity [12]; Liver): 0
- HepSE_liver function tests abnormal (Hepatotoxicity [13]; Liver): 0
- HepSE_Combined Scores (Hepatotoxicity [14]; Liver): 0

Structure (SMILES): CC(C)C[C@H](NC(=O)[C@@H](COC(C)(C)C)NC(=O)[C@H](Cc1ccc(O)cc1)NC(=O)[C@H](CO)NC(=O)[C@H](Cc1c[nH]c2ccccc12)NC(=O)[C@H](Cc1cnc[nH]1)NC(=O)[C@@H]1CCC(=O)N1)C(=O)N[C@@H](CCCNC(=N)N)C(=O)N1CCC[C@H]1C(=O)NNC(N)=O [GOSERELIN]
- HepSE_bilirubinemia (Hepatotoxicity [1]): 0
- HepSE_cholecystitis (Hepatotoxicity [2]): 0
- HepSE_cholelithiasis (Hepatotoxicity [3]): 0
- HepSE_cirrhosis (Hepatotoxicity [4]): 0
- HepSE_elevated liver function tests (Hepatotoxicity [5]): 0
- HepSE_hepatic failure (Hepatotoxicity [6]): 0
- HepSE_hepatic necrosis (Hepatotoxicity [7]): 0
- HepSE_hepatitis (Hepatotoxicity [8]): 0
- HepSE_hepatomegaly (Hepatotoxicity [9]): 0
- HepSE_jaundice (Hepatotoxicity [10]): 0
- HepSE_liver disease (Hepatotoxicity [11]): 0
- HepSE_liver fatty (Hepatotoxicity [12]): 0
- HepSE_liver function tests abnormal (Hepatotoxicity [13]): 0
- HepSE_Combined Scores (Hepatotoxicity [14]): 0

Structure (SMILES): CN1C2CCCC1CC(NC(=O)c1nn(C)c3ccccc13)C2 (configuration not stated) [GRANISETRON]
- HepSE_bilirubinemia (Hepatotoxicity [1]): 1
- HepSE_cholecystitis (Hepatotoxicity [2]): 0
- HepSE_cholelithiasis (Hepatotoxicity [3]): 0
- HepSE_cirrhosis (Hepatotoxicity [4]): 0
- HepSE_elevated liver function tests (Hepatotoxicity [5]): 0
- HepSE_hepatic failure (Hepatotoxicity [6]): 0
- HepSE_hepatic necrosis (Hepatotoxicity [7]): 0
- HepSE_hepatitis (Hepatotoxicity [8]): 0
- HepSE_hepatomegaly (Hepatotoxicity [9]): 0
- HepSE_jaundice (Hepatotoxicity [10]): 1
- HepSE_liver disease (Hepatotoxicity [11]): 0
- HepSE_liver fatty (Hepatotoxicity [12]): 0
- HepSE_liver function tests abnormal (Hepatotoxicity [13]): 1
- HepSE_Combined Scores (Hepatotoxicity [14]): 3

Structure (SMILES): COC1=CC(=O)C[C@@H](C)[C@]12Oc1c(Cl)c(OC)cc(OC)c1C2=O [GRISEOFULVIN]
- HepSE_bilirubinemia (Hepatotoxicity [1]): 0
- HepSE_cholecystitis (Hepatotoxicity [2]): 0
- HepSE_cholelithiasis (Hepatotoxicity [3]): 0
- HepSE_cirrhosis (Hepatotoxicity [4]): 0
- HepSE_elevated liver function tests (Hepatotoxicity [5]): 0
- HepSE_hepatic failure (Hepatotoxicity [6]): 0
- HepSE_hepatic necrosis (Hepatotoxicity [7]): 0
- HepSE_hepatitis (Hepatotoxicity [8]): 0
- HepSE_hepatomegaly (Hepatotoxicity [9]): 0
- HepSE_jaundice (Hepatotoxicity [10]): 0
- HepSE_liver disease (Hepatotoxicity [11]): 0
- HepSE_liver fatty (Hepatotoxicity [12]): 0
- HepSE_liver function tests abnormal (Hepatotoxicity [13]): 0
- HepSE_Combined Scores (Hepatotoxicity [14]): 0

Structure (SMILES): N=C(N)NCCN1CCCCCCC1 [GUANETHIDINE]
- HepSE_bilirubinemia (Hepatotoxicity [1]): 0
- HepSE_cholecystitis (Hepatotoxicity [2]): 0
- HepSE_cholelithiasis (Hepatotoxicity [3]): 0
- HepSE_cirrhosis (Hepatotoxicity [4]): 0
- HepSE_elevated liver function tests (Hepatotoxicity [5]): 0
- HepSE_hepatic failure (Hepatotoxicity [6]): 0
- HepSE_hepatic necrosis (Hepatotoxicity [7]): 0
- HepSE_hepatitis (Hepatotoxicity [8]): 0
- HepSE_hepatomegaly (Hepatotoxicity [9]): 0
- HepSE_jaundice (Hepatotoxicity [10]): 0
- HepSE_liver disease (Hepatotoxicity [11]): 0
- HepSE_liver fatty (Hepatotoxicity [12]): 0
- HepSE_liver function tests abnormal (Hepatotoxicity [13]): 0
- HepSE_Combined Scores (Hepatotoxicity [14]): 0

Structure (SMILES): N=C(N)NC(=O)Cc1c(Cl)cccc1Cl [GUANFACINE]
- HepSE_bilirubinemia (Hepatotoxicity [1]): 0
- HepSE_cholecystitis (Hepatotoxicity [2]): 0
- HepSE_cholelithiasis (Hepatotoxicity [3]): 0
- HepSE_cirrhosis (Hepatotoxicity [4]): 0
- HepSE_elevated liver function tests (Hepatotoxicity [5]): 0
- HepSE_hepatic failure (Hepatotoxicity [6]): 0
- HepSE_hepatic necrosis (Hepatotoxicity [7]): 0
- HepSE_hepatitis (Hepatotoxicity [8]): 0
- HepSE_hepatomegaly (Hepatotoxicity [9]): 0
- HepSE_jaundice (Hepatotoxicity [10]): 0
- HepSE_liver disease (Hepatotoxicity [11]): 0
- HepSE_liver fatty (Hepatotoxicity [12]): 0
- HepSE_liver function tests abnormal (Hepatotoxicity [13]): 1
- HepSE_Combined Scores (Hepatotoxicity [14]): 1

Structure (SMILES): CC1(C)O[C@@H]2C[C@H]3[C@@H]4CCC5=CC(=O)CC[C@]5(C)[C@@]4(F)[C@@H](O)C[C@]3(C)[C@]2(C(=O)CCl)O1 [HALCINONIDE]
- HepSE_bilirubinemia (Hepatotoxicity [1]): 0
- HepSE_cholecystitis (Hepatotoxicity [2]): 0
- HepSE_cholelithiasis (Hepatotoxicity [3]): 0
- HepSE_cirrhosis (Hepatotoxicity [4]): 0
- HepSE_elevated liver function tests (Hepatotoxicity [5]): 0
- HepSE_hepatic failure (Hepatotoxicity [6]): 0
- HepSE_hepatic necrosis (Hepatotoxicity [7]): 0
- HepSE_hepatitis (Hepatotoxicity [8]): 0
- HepSE_hepatomegaly (Hepatotoxicity [9]): 0
- HepSE_jaundice (Hepatotoxicity [10]): 0
- HepSE_liver disease (Hepatotoxicity [11]): 0
- HepSE_liver fatty (Hepatotoxicity [12]): 0
- HepSE_liver function tests abnormal (Hepatotoxicity [13]): 0
- HepSE_Combined Scores (Hepatotoxicity [14]): 0

Structure (SMILES): CCC(=O)O[C@]1(C(=O)CCl)[C@@H](C)C[C@H]2[C@@H]3C[C@H](F)C4=CC(=O)C=C[C@]4(C)[C@@]3(F)[C@@H](O)C[C@@]21C [HALOBETASOL PROPIONATE]
- HepSE_bilirubinemia (Hepatotoxicity [1]): 0
- HepSE_cholecystitis (Hepatotoxicity [2]): 0
- HepSE_cholelithiasis (Hepatotoxicity [3]): 0
- HepSE_cirrhosis (Hepatotoxicity [4]): 0
- HepSE_elevated liver function tests (Hepatotoxicity [5]): 0
- HepSE_hepatic failure (Hepatotoxicity [6]): 0
- HepSE_hepatic necrosis (Hepatotoxicity [7]): 0
- HepSE_hepatitis (Hepatotoxicity [8]): 0
- HepSE_hepatomegaly (Hepatotoxicity [9]): 0
- HepSE_jaundice (Hepatotoxicity [10]): 0
- HepSE_liver disease (Hepatotoxicity [11]): 0
- HepSE_liver fatty (Hepatotoxicity [12]): 0
- HepSE_liver function tests abnormal (Hepatotoxicity [13]): 0
- HepSE_Combined Scores (Hepatotoxicity [14]): 0

Structure (SMILES): CCCCN(CCCC)CCC(O)c1cc2c(Cl)cc(Cl)cc2c2cc(C(F)(F)F)ccc12 (configuration not stated) [HALOFANTRINE]
- HepSE_bilirubinemia (Hepatotoxicity [1]): 0
- HepSE_cholecystitis (Hepatotoxicity [2]): 0
- HepSE_cholelithiasis (Hepatotoxicity [3]): 0
- HepSE_cirrhosis (Hepatotoxicity [4]): 0
- HepSE_elevated liver function tests (Hepatotoxicity [5]): 0
- HepSE_hepatic failure (Hepatotoxicity [6]): 0
- HepSE_hepatic necrosis (Hepatotoxicity [7]): 0
- HepSE_hepatitis (Hepatotoxicity [8]): 0
- HepSE_hepatomegaly (Hepatotoxicity [9]): 0
- HepSE_jaundice (Hepatotoxicity [10]): 0
- HepSE_liver disease (Hepatotoxicity [11]): 0
- HepSE_liver fatty (Hepatotoxicity [12]): 0
- HepSE_liver function tests abnormal (Hepatotoxicity [13]): 0
- HepSE_Combined Scores (Hepatotoxicity [14]): 0

Structure (SMILES): O=C(CCCN1CCC(O)(c2ccc(Cl)cc2)CC1)c1ccc(F)cc1 [HALOPERIDOL]
- HepSE_bilirubinemia (Hepatotoxicity [1]): 0
- HepSE_cholecystitis (Hepatotoxicity [2]): 0
- HepSE_cholelithiasis (Hepatotoxicity [3]): 0
- HepSE_cirrhosis (Hepatotoxicity [4]): 0
- HepSE_elevated liver function tests (Hepatotoxicity [5]): 0
- HepSE_hepatic failure (Hepatotoxicity [6]): 0
- HepSE_hepatic necrosis (Hepatotoxicity [7]): 0
- HepSE_hepatitis (Hepatotoxicity [8]): 0
- HepSE_hepatomegaly (Hepatotoxicity [9]): 0
- HepSE_jaundice (Hepatotoxicity [10]): 1
- HepSE_liver disease (Hepatotoxicity [11]): 0
- HepSE_liver fatty (Hepatotoxicity [12]): 0
- HepSE_liver function tests abnormal (Hepatotoxicity [13]): 0
- HepSE_Combined Scores (Hepatotoxicity [14]): 1

Structure (SMILES): FC(F)(F)C(Cl)Br (configuration not stated) [HALOTHANE]
- HepSE_bilirubinemia (Hepatotoxicity [1]): 0
- HepSE_cholecystitis (Hepatotoxicity [2]): 0
- HepSE_cholelithiasis (Hepatotoxicity [3]): 0
- HepSE_cirrhosis (Hepatotoxicity [4]): 0
- HepSE_elevated liver function tests (Hepatotoxicity [5]): 0
- HepSE_hepatic failure (Hepatotoxicity [6]): 0
- HepSE_hepatic necrosis (Hepatotoxicity [7]): 1
- HepSE_hepatitis (Hepatotoxicity [8]): 0
- HepSE_hepatomegaly (Hepatotoxicity [9]): 0
- HepSE_jaundice (Hepatotoxicity [10]): 0
- HepSE_liver disease (Hepatotoxicity [11]): 0
- HepSE_liver fatty (Hepatotoxicity [12]): 0
- HepSE_liver function tests abnormal (Hepatotoxicity [13]): 0
- HepSE_Combined Scores (Hepatotoxicity [14]): 1

Structure (SMILES): Oc1c(Cl)cc(Cl)c(Cl)c1Cc1c(O)c(Cl)cc(Cl)c1Cl [HEXACHLOROPHENE]
- HepSE_bilirubinemia (Hepatotoxicity [1]): 0
- HepSE_cholecystitis (Hepatotoxicity [2]): 0
- HepSE_cholelithiasis (Hepatotoxicity [3]): 0
- HepSE_cirrhosis (Hepatotoxicity [4]): 0
- HepSE_elevated liver function tests (Hepatotoxicity [5]): 0
- HepSE_hepatic failure (Hepatotoxicity [6]): 0
- HepSE_hepatic necrosis (Hepatotoxicity [7]): 0
- HepSE_hepatitis (Hepatotoxicity [8]): 0
- HepSE_hepatomegaly (Hepatotoxicity [9]): 0
- HepSE_jaundice (Hepatotoxicity [10]): 0
- HepSE_liver disease (Hepatotoxicity [11]): 0
- HepSE_liver fatty (Hepatotoxicity [12]): 0
- HepSE_liver function tests abnormal (Hepatotoxicity [13]): 0
- HepSE_Combined Scores (Hepatotoxicity [14]): 0

Structure (SMILES): NNc1nncc2ccccc12 [HYDRALAZINE]
- HepSE_bilirubinemia (Hepatotoxicity [1]; Liver): 0
- HepSE_cholecystitis (Hepatotoxicity [2]; Liver): 0
- HepSE_cholelithiasis (Hepatotoxicity [3]; Liver): 0
- HepSE_cirrhosis (Hepatotoxicity [4]; Liver): 0
- HepSE_elevated liver function tests (Hepatotoxicity [5]; Liver): 0
- HepSE_hepatic failure (Hepatotoxicity [6]; Liver): 0
- HepSE_hepatic necrosis (Hepatotoxicity [7]; Liver): 0
- HepSE_hepatitis (Hepatotoxicity [8]; Liver): 1
- HepSE_hepatomegaly (Hepatotoxicity [9]; Liver): 0
- HepSE_jaundice (Hepatotoxicity [10]; Liver): 0
- HepSE_liver disease (Hepatotoxicity [11]; Liver): 0
- HepSE_liver fatty (Hepatotoxicity [12]; Liver): 0
- HepSE_liver function tests abnormal (Hepatotoxicity [13]; Liver): 0
- HepSE_Combined Scores (Hepatotoxicity [14]; Liver): 1
